Publication PMC5084761, “Crisaborole Topical Ointment, 2% in Patients Ages 2 to 17 Years with Atopic Dermatitis: A Phase 1b, Open‐Label, Maximal‐Use Systemic Exposure Study” (Pediatric Dermatology, 2016)
Like-named read-outs stand apart in the source and are kept apart here.

What was measured:
[1] = in vivo
Description: (§1) This was a phase 1b, multicenter, open‐label, maximal‐use study of crisaborole topical ointment, 2% applied twice daily (BID). The study included a PK and safety phase (dose application in clinic from day 1 through the morning dose on day 9) and a non‐PK safety phase (at‐home dose application from the evening dose on day 9 through day 28). […] The primary objective was to evaluate the systemic exposure, PK, and safety of crisaborole topical ointment, 2% when applied under maximal‐use conditions in children and adolescents 2 to 17 years of age.
(§2) Crisaborole topical ointment, 2% was applied BID to all treatable AD‐affected areas at an intended dose of 3 mg/cm^2. The per‐application dosage was calculated in grams at baseline for each patient based on total body surface area (BSA) and treatable percentage of BSA (percentage of AD‐involved skin excluding scalp and venous access areas). During the PK phase, the per‐application dosage remained fixed at the baseline level and was applied BID, with the evening application occurring 8 to 12 hours after the morning application.
(§3) The primary study endpoints were PK and safety of crisaborole topical ointment, 2% under maximal‐use conditions. PK profiles were developed for crisaborole and its major oxidative metabolites AN7602 and AN8323 based on plasma samples obtained on days 1 and 8. Calculated PK parameters included area under the curve (AUC), maximum plasma concentration (C max), time to C max (T max), and terminal half‐life (t 1/2), assessed on days 1 and 8.
(§4) Plasma PK samples were evaluated for crisaborole, AN7602, and AN8323 using a validated high‐performance liquid chromatography tandem mass spectrometry assay and analyzed using analysis of variance (ANOVA). Descriptive PK parameters were determined using standard noncompartmental methods based on concentration‐versus‐time curves for each patient.
(§5) If no statistically significant differences were observed using this model, the PK analysis was performed for all study patients.

[2] = tested on: children and adolescents with mild to moderate AD; assay: Efficacy: ISGA, treatment success, AD signs and symptoms, treatable percentage of BSA; assay type: in vivo, human (patients ages 2 to 17 years); details: for Percentage change from baseline in treatable percentage of BSA, mean ± SD: after 4 wks
Description: Secondary assessments included treatment success, defined as an Investigator Static Global Assessment (ISGA) score of 1 or less (clear or almost clear) with a two‐grade improvement or more from baseline. The proportion of patients achieving an ISGA of 0 (clear) or 1 (almost clear) was also assessed. Improvement from baseline in AD signs and symptoms of erythema, excoriation, exudation, lichenification, and pruritus was evaluated using a 4‐point scale ranging from 0 (none) to 3 (severe). Efficacy assessments were conducted at baseline and days 5, 8, 15, 22, and 29. Change from baseline in treatable percentage of BSA was assessed at day 29 and included all AD lesions identified at baseline.

[3] = Plasma pharmacokinetics after topical application of crisaborole topical ointment, 2% BID under maximal-use conditions (HPLC tandem mass spectrometry, noncompartmental); details: for Cmax: 3 mg/cm^2, C max
Description: as §1, §2, §3, §4, §5

## N#Cc1ccc(Oc2ccc(O)c(CO)c2)cc1 [AN7602]
[1]
  systemic exposure (in words): minimal

## N#Cc1ccc(Oc2ccc3c(c2)COB3O)cc1 [Crisaborole, crisaborole]
[2]; cohort 1
  Percentage change from baseline in treatable percentage of BSA, mean ± SD: −86.6 ± 18.6 percentage
[2]; cohort 2
  Percentage change from baseline in treatable percentage of BSA, mean ± SD: −72.8 ± 24.4 percentage
[2]; cohort 3
  Percentage change from baseline in treatable percentage of BSA, mean ± SD: −73.0 ± 21.7 percentage
[2]; total (N = 34)
  Percentage change from baseline in treatable percentage of BSA, mean ± SD: −77.7 ± 22.1 percentage
[2]; cohort 1, ages 12–17 yrs (n = 12), baseline 35.8 ± 11.3
  Day 29 treatable percentage of BSA, mean ± SD (range): 5.7 ± 8.6 (0–29) percentage of BSA
[2]; cohort 2, ages 6–11 yrs (n = 12), baseline 54.9 ± 19.3
  Day 29 treatable percentage of BSA, mean ± SD (range): 16.3 ± 14.5 (0–40) percentage of BSA
[2]; cohort 3, ages 2–5 yrs (n = 10), baseline 56.9 ± 23.0
  Day 29 treatable percentage of BSA, mean ± SD (range): 18.6 ± 18.1 (0–46) percentage of BSA
[2]; overall, as summarised in discussion
  reduction of the mean percentage of skin with AD lesions: ~ 75%
[2]; total (N = 34), baseline 48.7 ± 20.2
  Day 29 treatable percentage of BSA, mean ± SD (range): 13.2 ± 14.7 (0–46) percentage of BSA
[3]; human, plasma, topical, 3 mg/cm^2
  Tmax: 3 h
[3]; human, plasma, topical, 3 mg/cm^2, AUC0–12, mean ± SD, plasma, day 1, all patients (n = 32)
  AUC(0-t): 759 ± 730 ng·h/mL
[3]; human, plasma, topical, 3 mg/cm^2, AUC0–12, mean ± SD, plasma, day 8, all patients (n = 32)
  AUC(0-t): 949 ± 1240 ng·h/mL
[3]; human, plasma, topical, 3 mg/cm^2, AUC0–24, mean ± SD, plasma, day 1, all patients (n = 29)
  AUC(0-t): 833 ± 694 ng·h/mL
[3]; human, plasma, topical, 3 mg/cm^2, AUC0–24, mean ± SD, plasma, day 8, all patients (n = 32)
  AUC(0-t): 1320 ± 1330 ng·h/mL
[3]; human, plasma, topical, 3 mg/cm^2, AUC0–T, mean ± SD, plasma, day 1, all patients (n = 34)
  AUC(0-t): 863 ± 759 ng·h/mL
[3]; human, plasma, topical, 3 mg/cm^2, AUC0–T, mean ± SD, plasma, day 8, all patients (n = 33)
  AUC(0-t): 1320 ± 1310 ng·h/mL
[3]; human, plasma, topical, mean ± SD, plasma, day 1, all patients (n = 34)
  Cmax: 111 ± 113 ng/mL
[3]; human, plasma, topical, mean ± SD, plasma, day 8, all patients (n = 33)
  Cmax: 127 ± 196 ng/mL
[3]; maximal-use conditions, increased with treatable percentage of BSA
  systemic exposure (in words): minimal
[3]; over 8 days of dosing
  systemic accumulation in plasma (in words): minimal systemic accumulation
[3]; plasma, BID dosing
  time by which steady state was reached: ≤ 8 days
[3]; plasma, day 1, all patients (n = 34), ointment 2% at 3 mg/cm^2
  T max, median (range): 3.00 (3–12) hours
